Our source for the IC50 values is US9029559B2, “Substituted 3-heteroaroylamino-propionic acid derivatives and their use as pharmaceuticals” (SANOFI, priority 2011, dated 2015).

The assay concerns the target Recombinant human cathepsin A (Homo sapiens (Human), UniProt P10619). The experiment in a line: Cathepsin A inhibitory activity (cleavage of Bodipy FL-labeled bradykinin, microfluidic capillary electrophoresis). The format is biochemical. The following applies: for IC50: read-out: Activity [μM] (IC50, cathepsin A inhibitory activity).
Where [1] appears, read: read-out: Activity (IC50, cathepsin A inhibitory activity).
Where [2] appears, read: read-out: Activity (IC50, cathepsin A inhibition).
The mark [3] stands for this setting: read-out: Activity (Cathepsin A inhibitory activity, IC50).

pIC50: −log10 of the molar value. Where two headings read alike, the source gives them in different places.

Chain of Recombinant human cathepsin A (P10619 29-326): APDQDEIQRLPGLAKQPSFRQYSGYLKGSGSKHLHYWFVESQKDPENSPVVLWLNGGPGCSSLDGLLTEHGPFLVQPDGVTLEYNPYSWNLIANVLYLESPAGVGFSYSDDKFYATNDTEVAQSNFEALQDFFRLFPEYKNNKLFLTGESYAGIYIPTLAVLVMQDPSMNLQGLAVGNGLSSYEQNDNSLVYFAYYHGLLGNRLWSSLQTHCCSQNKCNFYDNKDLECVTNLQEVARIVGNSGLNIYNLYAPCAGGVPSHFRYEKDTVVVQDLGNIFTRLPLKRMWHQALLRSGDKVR
Chain of Recombinant human cathepsin A (P10619 327-480): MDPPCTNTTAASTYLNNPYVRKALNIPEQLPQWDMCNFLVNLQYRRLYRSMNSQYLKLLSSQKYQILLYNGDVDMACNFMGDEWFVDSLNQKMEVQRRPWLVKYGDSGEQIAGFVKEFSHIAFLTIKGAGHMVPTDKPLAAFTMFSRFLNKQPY

Turning to `COc1ccc(C(=O)N[C@@H](CC(=O)O)c2ccccc2Cl)nc1-c1ccc(Cl)cc1` [compound 334], the IC50 was determined as 1.81 µM.
As for `Cc1ccccc1[C@H](CC(=O)O)NC(=O)c1cccc(-n2ccnc2)n1` [compound 56], the pIC50 under setting [1] was 4.95.
Take `COc1ccc(C(=O)N[C@@H](CC(=O)O)c2ccccc2C)nc1-c1ccc(C(C)=O)cc1` [compound 361]: the IC50 was 9.24 µM.
With `COc1ccc(C(=O)N[C@@H](CC(=O)O)c2ccccc2Cl)nc1-c1cccc(C(C)(C)O)c1` [compound 496], the pIC50 under setting [2] was 5.54.
Regarding `O=C(O)CC(NC(=O)c1cc(-c2ccccc2)nc(N2CCCCC2)n1)c1ccccc1Cl` (centres unmarked) [compound 616, 3-(2-Chloro-phenyl)-3-[(6-phenyl-2-piperidin-1-yl-pyrimidine-4-carbonyl)-amino]-propionic acid], the pIC50 under setting [3] is 4.98.
As to `COc1ccc(C(=O)N[C@@H](CC(=O)O)c2ccc(C)cc2)nc1-c1cccc(Cl)c1` [compound 193], the IC50 was 2.74 µM.
For the compound `COc1ccc(C(=O)N[C@@H](CC(=O)O)c2ccccc2F)nc1-c1cccc(C)c1` [compound 269], the pIC50 under setting [1] is 5.99.
Regarding `Cc1cccc(C(=O)NC(CC(=O)O)c2ccccc2Cl)n1` (centres unmarked) [compound 527], the pIC50 under setting [2] was 5.30.
Consider `COc1ncc(C(=O)N[C@@H](CC(=O)O)c2ccccc2C)cc1-c1ccccc1C` [compound 411], for which the pIC50 under setting [1] was 5.93.
The same measure, in the same setting: then `COc1ccc(C(=O)N[C@@H](CC(=O)O)c2ccccc2Cl)nc1-c1cc(C)cnc1Cl` [compound 481], with 5.06.
For the compound `COc1ccc(-c2nc(C(=O)N[C@@H](CC(=O)O)c3ccccc3Cl)ccc2OC)cc1` [compound 335], the IC50 stood at 2.25 µM.
As to `COc1ccccc1-c1cc(C(=O)N[C@@H](CC(=O)O)c2ccccc2C)cnc1OC` [compound 416], under setting [1], the pIC50 is 5.47.
Turning to `O=C(O)C[C@H](NC(=O)c1cccc(-c2ccccc2F)n1)c1ccc(C(F)(F)F)cc1` [compound 608], the pIC50 under setting [3] was 5.20.
With `O=C(O)CC(NC(=O)c1cncc(-c2ccccc2)c1)c1ccccc1Cl` (centres unmarked) [compound 566], the negative-log IC50 (pIC50) under setting [2] is 4.93.
For `COc1ccc(C(=O)N[C@@H](CC(=O)O)c2ccc(C)cc2)nc1-c1ccc(F)nc1` [compound 227], the pIC50 under setting [1] was 5.12.
In the case of `COc1ccc(-c2nc(C(=O)N[C@@H](CC(=O)O)c3ccccc3F)ccc2OC)cc1` [compound 259], the negative-log IC50 (pIC50) under setting [1] was 5.30.
Turning to `Cc1cc(C)nc(C(=O)N[C@@H](CC(=O)O)c2ccccc2C)c1` [compound 51], the pIC50 under setting [1] is 5.74.
As for `COc1ccc(C(=O)N[C@@H](CC(=O)O)c2ccccc2Cl)nc1-c1ccc(C(F)(F)F)cc1` [compound 337], the IC50 came out at 9.5 µM.
Same read-out and setting: then `Cc1ccccc1[C@H](CC(=O)O)NC(=O)c1cccc(-c2cc(F)cc(F)c2)n1` [compound 150], with 1.02 µM.
The same measure, in the same setting: under `COc1ncc(C(=O)N[C@@H](CC(=O)O)c2ccccc2Cl)cc1-c1ccccc1` [compound 344, (S)-3-(2-Chloro-phenyl)-3-[(6-methoxy-5-phenyl-pyridine-3-carbonyl)-amino]-propionic acid] stands 3.49 µM.
As to `Cc1ccccc1[C@H](CC(=O)O)NC(=O)c1ccc2nc[nH]c2n1` [compound 34], the pIC50 under setting [1] is 5.29.
As for `O=C(O)CC(NC(=O)c1ccc2cnccc2n1)c1ccccc1Cl` (centres unmarked) [compound 544], the pIC50 under setting [2] is 4.95.
Regarding `COc1ncc(C(=O)N[C@@H](CC(=O)O)c2ccccc2C)cc1-c1cccc(-c2ccccc2)c1` [compound 423], the negative-log IC50 (pIC50) under setting [1] was less than 5.00.
The same measure, in the same setting: under `Cc1ccccc1[C@H](CC(=O)O)NC(=O)c1cccnc1` [compound 8] stands 4.98.
Take `O=C(O)C[C@H](NC(=O)c1cccc(-c2ccccc2F)n1)c1ccc(Cl)cc1Cl` [compound 605]: under setting [3], the pIC50 was 5.64.
With `COc1ccccc1-c1cc(C(=O)N[C@@H](CC(=O)O)c2ccccc2Cl)cnc1OC` [compound 394], the IC50 stood at 3.76 µM.
For `COc1ccc(C(=O)N[C@@H](CC(=O)O)c2ccc(C)cc2)nc1-c1ccc2ccn(C)c2c1` [compound 251], the pIC50 under setting [1] was 5.05.
In the case of `Cc1ccccc1[C@H](CC(=O)O)NC(=O)c1cncc(-c2cccc(F)c2F)c1` [compound 79], the pIC50 under setting [1] was 5.30.
The same measure, in the same setting: under `COc1ccc(C(=O)N[C@@H](CC(=O)O)c2ccccc2F)nc1-c1ccc(C)cc1C` [compound 291] stands 5.40; under `COc1ccc(C(=O)N[C@@H](CC(=O)O)c2ccccc2F)nc1-c1ccc(F)c(C)c1` [compound 292], 5.38.
The same measure, in the same setting: under `COc1ccc(-c2cncc(C(=O)N[C@@H](CC(=O)O)c3ccccc3C)c2)cc1` [compound 57] stands 4.94.
In the case of `COc1ccc(C(=O)N[C@@H](CC(=O)O)c2ccccc2C)nc1-c1cc(C)cc(Cl)c1` [compound 378], the IC50 is 7.49 µM.
Same read-out and setting: then `COc1ccc(-c2cc(C(=O)N[C@@H](CC(=O)O)c3ccccc3Cl)cnc2OC)cc1` [compound 387], with 9.43 µM; and `COc1ccc(C(=O)N[C@@H](CC(=O)O)c2ccc(C)cc2)nc1-c1ccc(Cl)cc1` [compound 186, (S)-3-{[6-(4-Chloro-phenyl)-5-methoxy-pyridine-2-carbonyl]-amino}-3-p-tolyl-propionic acid], with 3.56 µM.
Regarding `COc1ccc(C(=O)N[C@@H](CC(=O)O)c2ccccc2Cl)nc1-c1cccc(C(C)=O)c1` [compound 435], the pIC50 under setting [1] was 5.38.
The same measure, in the same setting: under `COc1cc(Cl)ccc1-c1nc(C(=O)N[C@@H](CC(=O)O)c2ccc(C)cc2)ccc1OC` [compound 232] stands 5.63; under `COc1ncc(C(=O)N[C@@H](CC(=O)O)c2ccccc2C)cc1-c1ccccc1` [compound 405], 5.41.
In the case of `COc1ccc(C(=O)N[C@@H](CC(=O)O)c2ccccc2C)nc1-c1ccnc(N2CCOCC2)c1` [compound 381], the IC50 is greater than 10 µM.
Turning to `Cc1ccccc1[C@H](CC(=O)O)NC(=O)c1cccc(F)n1` [compound 48], the pIC50 under setting [1] is 5.78.
Still for that read-out and setting: then `COc1ncc(C(=O)N[C@@H](CC(=O)O)c2ccccc2C)cc1-c1cccc(F)c1` [compound 414], with 5.09.
Regarding `COc1ccc(C(=O)N[C@@H](CC(=O)O)c2ccc(C)cc2)nc1-c1ccc(F)cc1` [compound 185], the IC50 amounted to 1.29 µM.
